Reference: ChEMBL document CHEMBL5385861, “Development of novel hydrazidoarylaminopyrimidine-based BTK/FLT3 dual inhibitors with potent in vivo anti-hematological malignancies effects” (Eur J Med Chem, 2023)
Activity calls are given as the source filed them. The rule behind the calls is not given here.

Legend:
JeKo-1 [1] = experiment: cells; conditions: Homo sapiens, JeKo-1, 72 h
Description: Antiproliferative activity against human JeKo-1 cells assessed as inhibition of cell growth incubated for 72 hrs by CCK8 assay

K562 = experiment: cells; conditions: Homo sapiens, K562, 72 h
Description: Antiproliferative activity against human K562 cells assessed as inhibition of cell growth incubated for 72 hrs by CCK8 assay

MV4-11 [2] = experiment: Antitumor activity against human MV4-11 cells xenografted NOD/SCID mouse assessed as increase in tumor necrotic cells at 20 mg/kg, ip administered once daily for 21 days by H and E staining analysis; type: functional, organism-based; conditions: time 21.0 day
MOLT-4 = experiment: cells; conditions: Homo sapiens, MOLT-4, 72 h
Description: Antiproliferative activity against human MOLT-4 cells assessed as inhibition of cell growth incubated for 72 hrs by CCK8 assay

MV4-11 [3] = experiment: cells; conditions: Homo sapiens, MV4-11, 72 h
[4] = biological target: Tyrosine-protein kinase BTK (Homo sapiens, UniProt Q06187); experiment: Inhibition of BTK (unknown origin) incubated for 40 mins by radiometric kinase assay
[5] = Metabolic stability in human liver microsome assessed as intrinsic clearance preincubated with compound for 5 mins followed by NADPH addition and measured upto 60 mins by LC-MS/MS analysis; type: ADME; conditions: liver microsomes, time < 65 min, read-out: CLH
[6] = Metabolic stability in human liver microsome assessed as half life preincubated with compound for 5 mins followed by NADPH addition and measured upto 60 mins by LC-MS/MS analysis; type: ADME; conditions: liver microsomes, time < 65 min
JeKo-1 [7] = experiment: Induction of apoptosis in human JeKo-1 cells assessed as viable cells at 750 nM incubated for 72 hrs by Annexin VFITC/PI staining based flow cytometry analysis (reference value: 94.81%); type: functional
JeKo-1 [8] = experiment: Induction of apoptosis in human JeKo-1 cells assessed as necrotic cells at 750 nM incubated for 72 hrs by Annexin VFITC/PI staining based flow cytometry analysis (reference value: 0.67%); type: functional
JeKo-1 [9] = experiment: Induction of apoptosis in human JeKo-1 cells assessed as late apoptotic cells at 750 nM incubated for 72 hrs by Annexin VFITC/PI staining based flow cytometry analysis (reference value: 1.42%); type: functional
JeKo-1 [10] = experiment: Induction of apoptosis in human JeKo-1 cells assessed as early apoptotic cells at 750 nM incubated for 72 hrs by Annexin VFITC/PI staining based flow cytometry analysis (reference value: 3.10%); type: functional
in vitro [11] = conditions: human, Caco-2
Description: Apparent permeability across basolateral to apical side in human Caco-2 cells incubated for 120 mins by LC-MS/MS analysis

P-glycoprotein = experiment: in vitro; conditions: human, Caco-2
Description: Efflux ratio of apparent permeability across basolateral to apical side over apical to basolateral side in human Caco-2 cells incubated for 120 mins in presence of P-glycoprotein by LC-MS/MS analysis

in vitro [12] = conditions: human, Caco-2; remark: listed apart in the source
Description: Apparent permeability across apical to basolateral side in human Caco-2 cells incubated for 120 mins by LC-MS/MS analysis

JeKo-1 [13] = experiment: Antitumor activity against human JeKo-1 cells xenografted NOD/SCID mouse assessed as tumor growth inhibition at 50 mg/kg, ip measured for 16 days; type: functional; conditions: JeKo-1, 384 h, time 16 day, read-out: TGI
JeKo-1 [14] = experiment: Antitumor activity against human JeKo-1 cells xenografted NOD/SCID mouse assessed as reduction in tumor weight at 50 mg/kg, ip measured for 16 days; type: functional; conditions: time 16 day

Sequence of Tyrosine-protein kinase BTK (Q06187 whole entry): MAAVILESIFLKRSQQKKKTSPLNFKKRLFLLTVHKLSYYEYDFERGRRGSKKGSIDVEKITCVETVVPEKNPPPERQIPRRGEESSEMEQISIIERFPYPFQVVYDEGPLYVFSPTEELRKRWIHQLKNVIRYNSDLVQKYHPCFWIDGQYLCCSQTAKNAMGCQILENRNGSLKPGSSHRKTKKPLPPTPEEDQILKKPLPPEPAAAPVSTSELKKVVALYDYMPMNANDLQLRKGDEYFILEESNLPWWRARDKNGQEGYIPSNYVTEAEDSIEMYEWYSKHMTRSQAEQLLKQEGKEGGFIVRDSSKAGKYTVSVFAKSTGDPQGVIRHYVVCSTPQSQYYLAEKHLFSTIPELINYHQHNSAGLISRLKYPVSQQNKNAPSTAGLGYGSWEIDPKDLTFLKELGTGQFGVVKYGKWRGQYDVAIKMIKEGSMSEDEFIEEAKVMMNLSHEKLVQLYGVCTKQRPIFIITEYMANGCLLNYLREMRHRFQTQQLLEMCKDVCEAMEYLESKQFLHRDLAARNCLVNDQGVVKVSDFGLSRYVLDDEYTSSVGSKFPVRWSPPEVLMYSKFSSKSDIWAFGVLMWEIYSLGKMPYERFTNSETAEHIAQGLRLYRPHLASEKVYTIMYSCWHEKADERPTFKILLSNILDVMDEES

NNC(=O)c1cccc(Nc2nc(Nc3ccc(N4CCOCC4)cc3)ncc2F)c1
IC50 (JeKo-1 [1]): 0.801 µM

COc1cc(N2CCN(C)CC2)ccc1Nc1ncc(F)c(Nc2ccccc2C(=O)NN)n1
IC50 (JeKo-1 [1]): > 2 µM

CNC(=O)c1cc(Oc2ccc(NC(=O)Nc3ccc(Cl)c(C(F)(F)F)c3)cc2)ccn1 [SORAFENIB]
IC50 (K562): 7.74 µM | Activity (MV4-11 [2]): Active | IC50 (JeKo-1 [1]): 1.07 µM | IC50 (MOLT-4): 2.5 µM

NNC(=O)c1ccccc1Nc1nc(Nc2ccc(N3CCOCC3)cc2)ncc1F
IC50 (K562): > 25 µM | IC50 (MV4-11 [3]): 0.041 µM | IC50 (JeKo-1 [1]): 0.088 µM | IC50 [4]: 0.105 µM | IC50 (MOLT-4): 0.239 µM

CCN1CCN(c2ccc(Nc3ncc(F)c(Nc4ccccc4C(=O)NN)n3)cc2)CC1
IC50 (JeKo-1 [1]): 1.28 µM

COc1cc(N2CCN(C)CC2)ccc1Nc1ncc(F)c(Nc2ccc(C(=O)NN)cc2)n1
IC50 (JeKo-1 [1]): > 2 µM

NNC(=O)c1ccc(Nc2nc(Nc3ccc(N4CCOCC4)cc3)ncc2F)cc1
IC50 (JeKo-1 [1]): > 2 µM

NNC(=O)c1cccc(Nc2nc(Nc3ccc(N4CCCCC4)cc3)ncc2F)c1
IC50 (JeKo-1 [1]): 1.24 µM

NNC(=O)c1ccc(Nc2nc(Nc3ccc(N4CCCCC4)cc3)ncc2F)cc1
IC50 (JeKo-1 [1]): > 2 µM

CN1CCN(c2ccc(Nc3ncc(F)c(Nc4cccc(C(=O)NN)c4)n3)cc2F)CC1
IC50 (JeKo-1 [1]): 0.222 µM

CN1CCN(c2ccc(Nc3ncc(F)c(Nc4ccc(C(=O)NN)cc4)n3)cc2F)CC1
IC50 (JeKo-1 [1]): 1.09 µM

CCN1CCN(c2ccc(Nc3ncc(F)c(Nc4ccc(C(=O)NN)cc4)n3)cc2)CC1
IC50 (JeKo-1 [1]): 1.75 µM

COc1cc(N2CCN(C)CC2)ccc1Nc1ncc(F)c(Nc2cccc(C(=O)NN)c2)n1
IC50 (JeKo-1 [1]): > 2 µM

O=C(O)Cc1ccccc1Nc1c(Cl)cccc1Cl [DICLOFENAC]
CLint scaled [5]: 230 mL/min/kg | half-life [6]: 5.44 min

C=CC(=O)N1CCC[C@@H](n2nc(-c3ccc(Oc4ccccc4)cc3)c3c(N)ncnc32)C1 [IBRUTINIB]
IC50 (K562): 5.57 µM | Activity (JeKo-1 [7]): 85.08% | Activity (JeKo-1 [8]): 0.18% | IC50 (MV4-11 [3]): 0.423 µM | Activity (JeKo-1 [9]): 0.32% | IC50 (JeKo-1 [1]): 1.68 µM | Activity (JeKo-1 [10]): 14.42% | IC50 (MOLT-4): 3.52 µM

CN1CCN(c2ccc(Nc3ncc(F)c(Nc4ccc(C(=O)NN)cc4)n3)cc2)CC1
IC50 (JeKo-1 [1]): 1.41 µM

CC(C)NCC(O)COc1cccc2ccccc12 (stereo unspecified) [PROPRANOLOL]
Papp B→A at 2 h (in vitro [11]): 20.1 ×10⁻⁶ cm/s | efflux ratio at 2 h (P-glycoprotein): 0.62 | Papp A→B at 2 h (in vitro [12]): 32.4 ×10⁻⁶ cm/s

CN1CCN(c2ccc(Nc3ncc(F)c(Nc4cccc(C(=O)NN)c4)n3)cc2)CC1
IC50 (JeKo-1 [1]): 0.562 µM

C[C@H]1O[C@@H](O[C@H]2[C@@H](O)C[C@H](O[C@H]3[C@@H](O)C[C@H](O[C@H]4CC[C@@]5(C)[C@H](CC[C@@H]6[C@@H]5C[C@@H](O)[C@]5(C)[C@@H](C7=CC(=O)OC7)CC[C@]65O)C4)O[C@@H]3C)O[C@@H]2C)C[C@H](O)[C@@H]1O [DIGOXIN]
Papp B→A at 2 h (in vitro [11]): 11.2 ×10⁻⁶ cm/s | efflux ratio at 2 h (P-glycoprotein): 44.1 | Papp A→B at 2 h (in vitro [12]): 0.25 ×10⁻⁶ cm/s

NNC(=O)c1ccccc1Nc1nc(Nc2ccc(N3CCCCC3)cc2)ncc1F
IC50 (JeKo-1 [1]): 1.88 µM

CCN1CCN(c2ccc(Nc3ncc(F)c(Nc4cccc(C(=O)NN)c4)n3)cc2)CC1
IC50 (JeKo-1 [1]): 0.54 µM

C=CC(=O)Nc1cccc(Nc2nc(Nc3ccc(OCCOC)cc3)ncc2F)c1 [SPEBRUTINIB]
IC50 (K562): 7.4 µM | IC50 (MV4-11 [3]): 0.245 µM | IC50 (JeKo-1 [1]): 1.48 µM | inhibition in vivo at 50 mg/kg (JeKo-1 [13]): 38.1% | Activity (JeKo-1 [14]): 0.69 g | IC50 (MOLT-4): 1.46 µM

CN1CCN(c2ccc(Nc3ncc(F)c(Nc4ccccc4C(=O)NN)n3)cc2F)CC1
IC50 (K562): 0.69 µM | IC50 (MV4-11 [3]): 0.031 µM | IC50 (JeKo-1 [1]): 0.052 µM | IC50 [4]: 0.084 µM | IC50 (MOLT-4): 0.065 µM
